ChEMBL document CHEMBL5120859, “Optimization of 4-arylthiophene-3-carboxylic acid derivatives as inhibitors of ANO1: Lead optimization studies toward their analgesic efficacy for inflammatory pain” (Eur J Med Chem, 2022)
Calls of active or inactive are those of the source. No cut-off for these calls is given here.

Experiments:
Anoctamin-1 = biological target: T1, Anoctamin-1 (Homo sapiens, UniProt Q5XXA6); test: Inhibition of YFP tagged ANO1 (unknown origin) expressed in FRT cells incubated for 24 hrs by fluorescence plate reader assay; format: cell-based
T1 sequence (Q5XXA6 whole entry): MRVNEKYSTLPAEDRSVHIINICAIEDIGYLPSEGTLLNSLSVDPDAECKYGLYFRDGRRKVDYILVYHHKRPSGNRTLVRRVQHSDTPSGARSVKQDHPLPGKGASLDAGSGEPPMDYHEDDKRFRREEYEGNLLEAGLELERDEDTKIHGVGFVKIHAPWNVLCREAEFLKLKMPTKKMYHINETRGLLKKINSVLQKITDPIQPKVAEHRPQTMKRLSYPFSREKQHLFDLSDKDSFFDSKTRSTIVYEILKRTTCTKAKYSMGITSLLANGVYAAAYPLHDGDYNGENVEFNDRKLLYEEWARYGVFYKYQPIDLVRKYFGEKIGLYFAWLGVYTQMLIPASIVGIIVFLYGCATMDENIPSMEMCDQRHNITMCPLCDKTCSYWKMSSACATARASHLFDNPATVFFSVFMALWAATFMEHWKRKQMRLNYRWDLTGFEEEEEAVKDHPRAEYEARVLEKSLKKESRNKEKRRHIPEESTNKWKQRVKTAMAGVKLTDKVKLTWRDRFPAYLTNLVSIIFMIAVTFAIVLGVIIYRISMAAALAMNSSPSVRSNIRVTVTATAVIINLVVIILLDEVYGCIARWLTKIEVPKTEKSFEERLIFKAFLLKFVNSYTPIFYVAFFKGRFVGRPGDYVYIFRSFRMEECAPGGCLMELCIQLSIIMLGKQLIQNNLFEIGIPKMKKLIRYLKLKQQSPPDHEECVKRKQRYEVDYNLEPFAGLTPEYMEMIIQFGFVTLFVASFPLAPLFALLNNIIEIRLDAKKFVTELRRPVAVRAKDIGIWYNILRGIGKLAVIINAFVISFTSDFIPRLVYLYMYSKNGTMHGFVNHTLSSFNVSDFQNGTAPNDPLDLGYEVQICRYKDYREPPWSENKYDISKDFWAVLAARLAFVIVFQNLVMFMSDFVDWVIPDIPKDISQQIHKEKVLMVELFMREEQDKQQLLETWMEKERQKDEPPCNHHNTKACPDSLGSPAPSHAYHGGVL

[1] = biological target: T2, Anoctamin-2 (Homo sapiens) (UniProt Q9NQ90); test: Inhibition of human ANO2 expressed in HEK293 cells at 30 uM incubated for 5 mins by whole cell patch clamp electrophysiology relative to control; format: cell-based
T2 sequence (whole entry): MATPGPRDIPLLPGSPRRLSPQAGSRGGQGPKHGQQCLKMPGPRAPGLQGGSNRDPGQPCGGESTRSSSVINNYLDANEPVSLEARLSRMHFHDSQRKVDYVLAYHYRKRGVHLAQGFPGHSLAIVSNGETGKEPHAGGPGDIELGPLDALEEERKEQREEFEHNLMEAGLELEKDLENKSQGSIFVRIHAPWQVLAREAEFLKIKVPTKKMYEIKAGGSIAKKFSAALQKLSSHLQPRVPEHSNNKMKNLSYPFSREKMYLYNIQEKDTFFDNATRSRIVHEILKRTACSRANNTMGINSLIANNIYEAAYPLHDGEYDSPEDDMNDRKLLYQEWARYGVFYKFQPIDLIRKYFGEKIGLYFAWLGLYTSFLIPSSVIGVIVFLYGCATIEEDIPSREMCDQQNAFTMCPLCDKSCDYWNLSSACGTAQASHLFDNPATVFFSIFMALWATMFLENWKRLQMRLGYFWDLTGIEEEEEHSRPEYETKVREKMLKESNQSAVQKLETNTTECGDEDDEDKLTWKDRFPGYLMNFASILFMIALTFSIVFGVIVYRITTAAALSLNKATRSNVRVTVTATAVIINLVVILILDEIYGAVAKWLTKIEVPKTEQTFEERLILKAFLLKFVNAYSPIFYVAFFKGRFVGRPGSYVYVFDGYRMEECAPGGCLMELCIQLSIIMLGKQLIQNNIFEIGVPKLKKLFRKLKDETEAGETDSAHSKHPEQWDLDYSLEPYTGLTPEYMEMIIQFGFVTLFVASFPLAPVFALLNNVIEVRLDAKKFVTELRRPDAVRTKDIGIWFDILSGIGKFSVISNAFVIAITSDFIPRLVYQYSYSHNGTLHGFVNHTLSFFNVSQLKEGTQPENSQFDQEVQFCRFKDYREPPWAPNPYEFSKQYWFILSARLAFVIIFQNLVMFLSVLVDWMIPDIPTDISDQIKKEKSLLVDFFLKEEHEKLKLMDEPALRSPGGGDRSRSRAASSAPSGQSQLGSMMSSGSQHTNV

[2] = biological target: Voltage-gated inwardly rectifying potassium channel KCNH2 (Homo sapiens, UniProt Q12809); test: Cardiotoxicity against human ERG expressed in HEK293 cells by patch clamp assay; format: toxicity, cell-based
Voltage-gated inwardly rectifying potassium channel KCNH2, sequence (Q12809 whole entry): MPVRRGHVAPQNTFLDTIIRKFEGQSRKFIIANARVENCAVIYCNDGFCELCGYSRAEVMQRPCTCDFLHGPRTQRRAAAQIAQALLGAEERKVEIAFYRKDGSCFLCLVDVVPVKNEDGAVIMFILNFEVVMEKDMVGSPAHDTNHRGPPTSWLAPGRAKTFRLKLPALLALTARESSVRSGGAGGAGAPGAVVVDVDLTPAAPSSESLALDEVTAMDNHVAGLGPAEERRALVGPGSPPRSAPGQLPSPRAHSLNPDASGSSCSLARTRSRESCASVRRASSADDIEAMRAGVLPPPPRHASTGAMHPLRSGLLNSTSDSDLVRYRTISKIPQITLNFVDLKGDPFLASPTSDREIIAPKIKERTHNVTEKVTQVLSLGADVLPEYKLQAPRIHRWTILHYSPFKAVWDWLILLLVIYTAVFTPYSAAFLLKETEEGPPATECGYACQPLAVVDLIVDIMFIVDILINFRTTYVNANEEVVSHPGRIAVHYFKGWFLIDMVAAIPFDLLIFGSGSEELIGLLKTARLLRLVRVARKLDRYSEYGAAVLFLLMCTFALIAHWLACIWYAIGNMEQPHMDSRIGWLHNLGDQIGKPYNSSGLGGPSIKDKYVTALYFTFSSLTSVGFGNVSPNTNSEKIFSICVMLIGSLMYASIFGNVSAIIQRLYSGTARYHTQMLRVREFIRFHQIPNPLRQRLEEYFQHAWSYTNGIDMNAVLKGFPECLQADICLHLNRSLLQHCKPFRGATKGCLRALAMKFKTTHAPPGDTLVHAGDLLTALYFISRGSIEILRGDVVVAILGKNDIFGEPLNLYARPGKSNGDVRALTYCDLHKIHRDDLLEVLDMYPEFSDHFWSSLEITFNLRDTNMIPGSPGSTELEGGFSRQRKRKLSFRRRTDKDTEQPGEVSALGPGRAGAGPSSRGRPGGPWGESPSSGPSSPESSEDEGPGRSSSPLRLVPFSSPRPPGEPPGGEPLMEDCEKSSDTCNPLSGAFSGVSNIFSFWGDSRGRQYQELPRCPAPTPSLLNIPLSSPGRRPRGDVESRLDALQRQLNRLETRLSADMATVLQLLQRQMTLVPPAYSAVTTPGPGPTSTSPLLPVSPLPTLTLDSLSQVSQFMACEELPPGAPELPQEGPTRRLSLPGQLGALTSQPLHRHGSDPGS

[3] = biological target: Transient receptor potential cation channel subfamily V member 1 (Homo sapiens) (UniProt Q8NER1); test: Inhibition of TRPV1 (unknown origin) at a holding potential +100 mV at 30 uM by whole cell patch clamp electrophysiology relative to control
Transient receptor potential cation channel subfamily V member 1 (Homo sapiens), sequence (Q8NER1 whole entry): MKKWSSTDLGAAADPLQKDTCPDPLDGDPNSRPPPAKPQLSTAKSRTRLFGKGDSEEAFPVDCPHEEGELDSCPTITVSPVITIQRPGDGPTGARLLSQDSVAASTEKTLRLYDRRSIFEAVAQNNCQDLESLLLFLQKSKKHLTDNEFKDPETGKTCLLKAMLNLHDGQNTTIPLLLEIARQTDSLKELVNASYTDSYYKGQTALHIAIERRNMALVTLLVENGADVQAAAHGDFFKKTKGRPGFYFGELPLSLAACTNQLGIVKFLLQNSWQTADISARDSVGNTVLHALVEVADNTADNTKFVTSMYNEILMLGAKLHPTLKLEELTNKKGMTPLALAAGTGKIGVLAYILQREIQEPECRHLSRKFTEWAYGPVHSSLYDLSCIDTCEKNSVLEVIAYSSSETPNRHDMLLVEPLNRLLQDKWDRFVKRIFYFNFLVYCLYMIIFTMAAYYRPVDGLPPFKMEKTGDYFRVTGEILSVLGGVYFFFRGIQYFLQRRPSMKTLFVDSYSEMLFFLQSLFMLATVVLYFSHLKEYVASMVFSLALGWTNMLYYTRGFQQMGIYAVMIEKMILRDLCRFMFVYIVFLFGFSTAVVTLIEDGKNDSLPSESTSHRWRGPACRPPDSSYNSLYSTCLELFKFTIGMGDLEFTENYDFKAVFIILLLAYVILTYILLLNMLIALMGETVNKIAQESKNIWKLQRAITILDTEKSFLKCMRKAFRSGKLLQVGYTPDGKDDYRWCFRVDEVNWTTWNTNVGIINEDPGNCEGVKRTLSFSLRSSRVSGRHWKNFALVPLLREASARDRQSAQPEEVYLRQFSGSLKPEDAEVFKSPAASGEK

[4] = biological target: T3, Anoctamin-1 (Homo sapiens) (UniProt Q5XXA6); test: Inhibition of YFP tagged ANO1 (unknown origin) expressed in FRT cells at 30 uM incubated for 24 hrs by whole cell patch clamp electrophysiology relative to control; format: cell-based
T3 sequence (whole entry): T1 sequence (Q5XXA6 whole entry)

[5] = Cytotoxicity against human HEK293 cells assessed as inhibition of cell growth at 30 uM incubated for 72 hrs by CCK-8 assay; format: toxicity, cell-based
[6] = biological target: Transient receptor potential cation channel subfamily V member 1 (Homo sapiens) (UniProt Q8NER1); test: Inhibition of TRPV1 (unknown origin) at a holding potential +100 mV at 10 uM by whole cell patch clamp electrophysiology relative to control
[7] = biological target: Voltage-gated potassium channel, KQT; KCNQ2(Kv7.2)/KCNQ3(Kv7.3) (Homo sapiens) (UniProt O43526+O43525); test: Inhibition of KCNQ2/3 (unknown origin) at a holding potential -40 mV at 30 uM by whole cell patch clamp electrophysiology relative to control
Mus musculus [8] = test: Analgesic activity in C57BL/6 mouse model of formalin-induced allodynia assessed as reduction on foot licking pain response at 40 mg/kg,po measured after 10 mins; format: functional, organism-based
[9] = biological target: Voltage-dependent N-type calcium channel subunit alpha-1B (Homo sapiens) (UniProt Q00975); test: Inhibition of Cav2.2 (unknown origin) at a holding potential +10 mV at 10 uM by whole cell patch clamp electrophysiology relative to control
Voltage-dependent N-type calcium channel subunit alpha-1B (Homo sapiens), sequence (Q00975 whole entry, looked up, tested part not stated): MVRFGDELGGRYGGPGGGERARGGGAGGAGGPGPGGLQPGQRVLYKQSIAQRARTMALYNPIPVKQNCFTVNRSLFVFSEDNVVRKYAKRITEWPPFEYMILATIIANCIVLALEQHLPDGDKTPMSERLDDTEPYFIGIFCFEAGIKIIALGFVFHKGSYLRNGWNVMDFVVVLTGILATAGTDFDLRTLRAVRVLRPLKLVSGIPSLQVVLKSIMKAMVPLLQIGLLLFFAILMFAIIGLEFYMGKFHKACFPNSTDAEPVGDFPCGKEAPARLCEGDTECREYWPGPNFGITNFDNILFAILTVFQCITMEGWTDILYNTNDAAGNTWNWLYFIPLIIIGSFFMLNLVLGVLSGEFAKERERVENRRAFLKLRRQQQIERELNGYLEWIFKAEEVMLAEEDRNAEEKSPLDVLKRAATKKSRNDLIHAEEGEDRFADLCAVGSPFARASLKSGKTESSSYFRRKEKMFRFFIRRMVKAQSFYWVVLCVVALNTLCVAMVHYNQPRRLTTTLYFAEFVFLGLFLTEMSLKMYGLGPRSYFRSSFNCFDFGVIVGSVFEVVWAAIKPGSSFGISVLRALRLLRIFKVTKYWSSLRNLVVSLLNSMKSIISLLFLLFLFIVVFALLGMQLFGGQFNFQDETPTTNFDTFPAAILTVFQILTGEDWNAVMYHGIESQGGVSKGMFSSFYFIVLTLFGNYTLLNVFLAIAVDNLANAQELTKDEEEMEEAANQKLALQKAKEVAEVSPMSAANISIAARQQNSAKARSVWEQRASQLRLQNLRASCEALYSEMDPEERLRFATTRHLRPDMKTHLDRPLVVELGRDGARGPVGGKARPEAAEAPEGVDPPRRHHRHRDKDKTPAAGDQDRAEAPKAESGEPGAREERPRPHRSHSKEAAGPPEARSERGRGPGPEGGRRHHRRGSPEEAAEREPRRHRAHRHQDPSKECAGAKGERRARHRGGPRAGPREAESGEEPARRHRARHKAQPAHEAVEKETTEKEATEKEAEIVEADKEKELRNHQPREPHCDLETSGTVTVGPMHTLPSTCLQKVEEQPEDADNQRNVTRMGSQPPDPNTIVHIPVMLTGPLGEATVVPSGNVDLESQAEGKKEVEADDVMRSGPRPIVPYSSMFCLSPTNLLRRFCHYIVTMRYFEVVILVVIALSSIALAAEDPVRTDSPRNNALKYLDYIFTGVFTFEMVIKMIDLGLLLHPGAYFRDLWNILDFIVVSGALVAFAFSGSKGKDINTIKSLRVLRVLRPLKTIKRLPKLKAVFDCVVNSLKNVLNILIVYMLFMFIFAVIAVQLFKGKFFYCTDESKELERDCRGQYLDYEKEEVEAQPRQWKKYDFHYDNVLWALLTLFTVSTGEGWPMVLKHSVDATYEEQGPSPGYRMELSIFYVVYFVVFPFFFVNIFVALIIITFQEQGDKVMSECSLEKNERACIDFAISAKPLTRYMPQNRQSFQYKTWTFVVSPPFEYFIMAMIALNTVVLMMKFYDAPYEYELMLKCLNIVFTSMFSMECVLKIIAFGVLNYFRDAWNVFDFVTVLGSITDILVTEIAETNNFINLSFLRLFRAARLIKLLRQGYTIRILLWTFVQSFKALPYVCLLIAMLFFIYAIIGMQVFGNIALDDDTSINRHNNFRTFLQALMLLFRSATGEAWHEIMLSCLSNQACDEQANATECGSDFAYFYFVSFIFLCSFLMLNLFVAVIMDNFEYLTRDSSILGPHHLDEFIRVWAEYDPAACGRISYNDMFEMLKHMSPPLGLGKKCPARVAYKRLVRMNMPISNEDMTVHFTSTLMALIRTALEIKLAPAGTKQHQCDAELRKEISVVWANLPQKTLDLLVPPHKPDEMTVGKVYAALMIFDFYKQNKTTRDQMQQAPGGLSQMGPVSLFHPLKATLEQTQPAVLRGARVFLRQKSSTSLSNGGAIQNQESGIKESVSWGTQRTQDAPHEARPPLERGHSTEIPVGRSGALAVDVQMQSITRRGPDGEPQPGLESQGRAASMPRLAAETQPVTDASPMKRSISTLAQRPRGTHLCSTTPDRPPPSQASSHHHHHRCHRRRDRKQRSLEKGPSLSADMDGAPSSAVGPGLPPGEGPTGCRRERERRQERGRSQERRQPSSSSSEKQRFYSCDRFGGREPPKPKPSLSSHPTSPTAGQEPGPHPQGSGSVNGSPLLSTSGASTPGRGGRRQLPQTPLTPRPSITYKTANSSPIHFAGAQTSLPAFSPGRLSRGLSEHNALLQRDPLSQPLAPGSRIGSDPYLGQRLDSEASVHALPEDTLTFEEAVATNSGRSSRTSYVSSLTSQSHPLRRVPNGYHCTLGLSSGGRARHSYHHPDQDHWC

Mus musculus [10] = test: Analgesic activity in C57BL/6 mouse model of formalin-induced allodynia assessed as reduction on foot licking pain response at 20 mg/kg,po measured after 10 mins; format: functional, organism-based

Row | Molecule | IC50 (Anoctamin-1) [µM] | other results
1 | O=C(O)c1c(-c2ccc(Cl)cc2)csc1NC(=O)c1cccc2cccnc12 | > 300 | 
2 | O=C(Nc1scc(-c2ccc(Cl)cc2)c1C(=O)O)c1cc(Cl)ccc1Br | 0.029 | inhibition [1]: 92.6%; IC50 [2]: > 30 µM; inhibition [3]: 26.4%; inhibition [4]: 32.1%; inhibition at 72 h, 30 µM [5]: < 10%
3 | O=C(Nc1scc(-c2ccc(Cl)cc2)c1C(=O)O)c1cc(I)ccc1Cl | 78.9 | 
4 | O=C(Nc1scc(-c2ccc(Cl)cc2)c1C(=O)O)c1ccc(Cl)cc1Cl | 1.24 | 
5 | O=C(Nc1scc(-c2ccc(Cl)cc2)c1C(=O)O)c1cc(I)ccc1F | 4.49 | 
6 | COc1cc(CNC(=O)CCCC/C=C/C(C)C)ccc1O |  | inhibition [6]: 96.7%
7 | O=C(Nc1scc(-c2ccc(Cl)cc2)c1C(=O)O)c1cc(Cl)ccc1Cl | 0.27 | 
8 | O=C(Nc1scc(-c2ccc(Cl)cc2)c1C(=O)O)c1cccc2c1OCO2 | > 100 | 
9 | O=C(Nc1scc(-c2ccc(Cl)cc2)c1C(=O)O)c1cccnc1 | 70.6 | 
10 | O=C(Nc1scc(-c2ccc(Cl)cc2)c1C(=O)O)c1c(Cl)cccc1Cl | 12.1 | 
11 | O=C(Nc1scc(-c2ccc(Cl)cc2)c1C(=O)O)c1cc(C(F)(F)F)ccc1Cl | 36.9 | 
12 | O=C(Nc1scc(-c2ccc(Cl)cc2)c1C(=O)O)c1cc(Br)ccc1F | 59.8 | 
13 | O=C(Nc1ccc([N+](=O)[O-])cc1Cl)c1cc(Cl)ccc1O [NICLOSAMIDE] | 0.028 | 
14 | COc1ccc(Cl)cc1C(=O)Nc1scc(-c2ccc(Cl)cc2)c1C(=O)O | > 100 | 
15 | O=C(Nc1scc(-c2ccc(Cl)cc2)c1C(=O)O)c1cc(Cl)ccc1I | 12 | 
16 | COc1ccccc1/N=N/C(=O)COc1ccc(Cl)cc1C | 1.07 | inhibition [1]: 12.6%; inhibition [4]: 42.7%
17 | CCOC(=O)Nc1ccc(NCc2ccc(F)cc2)cc1N |  | inhibition [7]: 100%
18 | O=C(Nc1scc(-c2ccc(Cl)cc2)c1C(=O)O)c1ccccc1OC(F)(F)F | 5.66 | 
19 | COc1ccc(Cl)c(C(=O)Nc2scc(-c3ccc(Cl)cc3)c2C(=O)O)c1 | 35.9 | 
20 | O=C(O)c1c(-c2ccc(Cl)cc2)csc1NC(=O)c1cccc2ncccc12 | 6.99 | 

Row | Molecule | IC50 (Anoctamin-1) [µM] | other results
21 | O=C(O)c1c(-c2ccc(Cl)cc2)csc1NC(=O)c1cccc2ccccc12 | 0.79 | 
22 | CC(=O)Oc1ccccc1C(=O)Nc1ncc([N+](=O)[O-])s1 [NITAZOXANIDE] | 0.424 | 
23 | Cc1ccsc1C(=O)Nc1scc(-c2ccc(Cl)cc2)c1C(=O)O | 3.12 | 
24 | Cc1ccc(Cl)cc1C(=O)Nc1scc(-c2ccc(Cl)cc2)c1C(=O)O | > 100 | 
25 | O=C(Nc1scc(-c2ccc(Cl)cc2)c1C(=O)O)c1cc(Cl)ccc1C(F)(F)F | 1.59 | 
26 | Cc1ccc(Cl)c(C(=O)Nc2scc(-c3ccc(Cl)cc3)c2C(=O)O)c1 | 1.79 | 
27 | CC(C)(C)C1CCc2c(sc(NC(=O)c3ccco3)c2C(=O)O)C1 (configuration not stated) |  | inhibition [1]: 71.2%; Activity (Mus musculus [8]): Active
28 | O=C(Nc1scc(-c2ccc(Cl)cc2)c1C(=O)O)c1cc(F)ccc1I | 2.21 | 
29 | O=C(Nc1scc(-c2ccc(Cl)cc2)c1C(=O)O)c1cccc2c1OCCO2 | > 100 | 
30 | O=C(Nc1scc(-c2ccc(Cl)cc2)c1C(=O)O)c1cccc(Cl)c1Cl | 1.94 | 
31 | O=C(Nc1scc(-c2ccc(Cl)cc2)c1C(=O)O)c1cc(F)ccc1Cl | 6.55 | 
32 | O=C(Nc1scc(-c2ccc(Cl)cc2)c1C(=O)O)c1cc(F)ccc1Br | 0.96 | 
33 | O=C(Nc1scc(-c2ccc(Cl)cc2)c1C(=O)O)c1cc(Br)ccc1Cl | 83.5 | 
34 | CC(C)Cc1ccc(C(C)C(=O)O)cc1 (configuration not stated) |  | Activity (Mus musculus [8]): Active
35 | O=C(Nc1scc(-c2ccc(Cl)cc2)c1C(=O)O)c1cnccn1 | 4.01 | 
36 | CADMIUM DICHLORIDE |  | inhibition [9]: 91.4%
37 | O=C(Nc1scc(-c2ccc(Cl)cc2)c1C(=O)O)c1cc(Cl)ccc1F | 8.77 | 
38 | O=C(Nc1scc(-c2ccc(Cl)cc2)c1C(=O)O)c1ccncc1 | 6.27 | 
39 | CC(C)C[C@H](CN)CC(=O)O |  | Activity (Mus musculus [10]): Active
